According to publication PMC8550792, “Evolution of kinase polypharmacology across HSP90 drug discovery” (Cell Chemical Biology, 2021):

How the values were obtained:
Assay in all cases: biochemical
Assay type in all cases: biochemical
382 unique human kinases [1] = target: T1, 382 unique human kinases (Homo sapiens, UniProt Q13043); conditions: MST1/STK4, 10 uM; for remaining activity at 10 µM: read-out: % Enzyme Activity (relative to DMSO controls)
T1 construct: purchased Reaction Biology (HotSpot contract assay)
T1 sequence (Q13043 1-487): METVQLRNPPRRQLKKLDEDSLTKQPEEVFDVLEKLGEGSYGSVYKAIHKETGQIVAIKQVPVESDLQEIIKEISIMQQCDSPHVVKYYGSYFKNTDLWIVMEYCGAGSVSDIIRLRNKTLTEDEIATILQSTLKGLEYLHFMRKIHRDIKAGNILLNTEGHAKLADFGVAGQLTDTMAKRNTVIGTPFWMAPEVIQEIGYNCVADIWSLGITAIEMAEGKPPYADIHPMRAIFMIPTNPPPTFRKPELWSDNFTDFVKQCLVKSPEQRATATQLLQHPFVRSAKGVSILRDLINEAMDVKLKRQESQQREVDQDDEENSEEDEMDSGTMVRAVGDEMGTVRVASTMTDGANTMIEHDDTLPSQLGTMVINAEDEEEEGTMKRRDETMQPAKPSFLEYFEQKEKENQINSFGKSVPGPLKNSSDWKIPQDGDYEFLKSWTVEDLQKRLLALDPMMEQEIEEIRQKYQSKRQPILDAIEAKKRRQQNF

382 unique human kinases [2] = target: T2, 382 unique human kinases (Homo sapiens, UniProt Q02763, Y1108F); conditions: kinase TIE2 (Y1108F), compound 10 uM; for remaining activity at 10 µM: read-out: % Enzyme Activity (relative to DMSO controls)
T2 construct: purchased Reaction Biology (HotSpot contract assay)

382 unique human kinases [3] = target: T3, 382 unique human kinases (Homo sapiens, UniProt P08581); conditions: kinase c-MET, compound 10 uM; for remaining activity at 10 µM: read-out: % Enzyme Activity (relative to DMSO controls)
T3 construct: purchased Reaction Biology (HotSpot contract assay)

382 unique human kinases [4] = target: T4, 382 unique human kinases (Homo sapiens, UniProt P50613); conditions: kinase CDK7/cyclin H, compound 10 uM; for remaining activity at 10 µM: read-out: % Enzyme Activity (relative to DMSO controls)
T4 construct: purchased Reaction Biology (HotSpot contract assay)

382 unique human kinases [5] = target: T5, 382 unique human kinases (Homo sapiens, UniProt Q96QT4); conditions: kinase TRPM7/CHAK1, compound 10 uM; for remaining activity at 10 µM: read-out: % Enzyme Activity (relative to DMSO controls)
T5 construct: purchased Reaction Biology (HotSpot contract assay)

382 unique human kinases [6] = target: T6, 382 unique human kinases (Homo sapiens, UniProt P10721, D820E); conditions: c-Kit (D820E), 10 uM; for remaining activity at 10 µM: read-out: % Enzyme Activity (relative to DMSO controls)
T6 construct: purchased Reaction Biology (HotSpot contract assay)

382 unique human kinases [7] = target: T7, 382 unique human kinases (Homo sapiens, UniProt P49760); conditions: CLK2, 10 uM; for remaining activity at 10 µM: read-out: % Enzyme Activity (relative to DMSO controls)
T7 construct: purchased Reaction Biology (HotSpot contract assay)

382 unique human kinases [8] = target: T8, 382 unique human kinases (Homo sapiens, UniProt O14920); conditions: IKKb/IKBKB, 10 uM; for remaining activity at 10 µM: read-out: % Enzyme Activity (relative to DMSO controls)
T8 construct: purchased Reaction Biology (HotSpot contract assay)
T8 sequence (O14920 1-756): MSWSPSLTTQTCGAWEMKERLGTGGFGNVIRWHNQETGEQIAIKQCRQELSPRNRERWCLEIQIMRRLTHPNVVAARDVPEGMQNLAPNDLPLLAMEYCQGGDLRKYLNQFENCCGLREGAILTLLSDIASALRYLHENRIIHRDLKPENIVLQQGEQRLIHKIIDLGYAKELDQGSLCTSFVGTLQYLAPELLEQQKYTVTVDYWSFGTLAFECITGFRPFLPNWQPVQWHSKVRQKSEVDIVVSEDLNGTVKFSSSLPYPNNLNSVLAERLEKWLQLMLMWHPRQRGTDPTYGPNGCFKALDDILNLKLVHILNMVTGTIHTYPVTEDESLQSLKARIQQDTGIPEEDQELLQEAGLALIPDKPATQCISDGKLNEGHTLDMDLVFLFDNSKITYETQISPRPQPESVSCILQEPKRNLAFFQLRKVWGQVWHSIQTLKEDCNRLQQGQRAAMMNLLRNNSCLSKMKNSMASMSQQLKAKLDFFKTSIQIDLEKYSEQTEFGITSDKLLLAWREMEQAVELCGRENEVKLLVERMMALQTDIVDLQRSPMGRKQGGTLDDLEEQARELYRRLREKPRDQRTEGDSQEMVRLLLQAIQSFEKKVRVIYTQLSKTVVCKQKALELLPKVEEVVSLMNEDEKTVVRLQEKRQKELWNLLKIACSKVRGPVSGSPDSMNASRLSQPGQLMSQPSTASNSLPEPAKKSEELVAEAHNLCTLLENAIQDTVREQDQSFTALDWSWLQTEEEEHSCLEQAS

382 unique human kinases [9] = target: T9, 382 unique human kinases (Homo sapiens, UniProt P53355); conditions: kinase DAPK1, compound 10 uM; for remaining activity at 10 µM: read-out: % Enzyme Activity (relative to DMSO controls)
T9 construct: purchased Reaction Biology (HotSpot contract assay)

382 unique human kinases [10] = target: T10, 382 unique human kinases (Homo sapiens, UniProt Q13557); conditions: CAMK2d, 10 uM; for remaining activity at 10 µM: read-out: % Enzyme Activity (relative to DMSO controls)
T10 construct: purchased Reaction Biology (HotSpot contract assay)

382 unique human kinases [11] = target: T11, 382 unique human kinases (Homo sapiens, UniProt Q96RG2); conditions: PASK, [ATP] 50 µM
T11 construct: purchased Reaction Biology (HotSpot contract assay)

382 unique human kinases [12] = target: T12, 382 unique human kinases (Homo sapiens, UniProt Q15120); conditions: PDK3/PDHK3, [ATP] 30 µM, compound 10 uM; for remaining activity at 10 µM: read-out: % Enzyme Activity (relative to DMSO controls)
T12 construct: purchased Reaction Biology (HotSpot contract assay)

382 unique human kinases [13] = target: T13, 382 unique human kinases (Homo sapiens, UniProt O60285); conditions: ARK5/NUAK1, 10 uM; for remaining activity at 10 µM: read-out: % Enzyme Activity (relative to DMSO controls)
T13 construct: purchased Reaction Biology (HotSpot contract assay)
T13 sequence (O60285 1-661): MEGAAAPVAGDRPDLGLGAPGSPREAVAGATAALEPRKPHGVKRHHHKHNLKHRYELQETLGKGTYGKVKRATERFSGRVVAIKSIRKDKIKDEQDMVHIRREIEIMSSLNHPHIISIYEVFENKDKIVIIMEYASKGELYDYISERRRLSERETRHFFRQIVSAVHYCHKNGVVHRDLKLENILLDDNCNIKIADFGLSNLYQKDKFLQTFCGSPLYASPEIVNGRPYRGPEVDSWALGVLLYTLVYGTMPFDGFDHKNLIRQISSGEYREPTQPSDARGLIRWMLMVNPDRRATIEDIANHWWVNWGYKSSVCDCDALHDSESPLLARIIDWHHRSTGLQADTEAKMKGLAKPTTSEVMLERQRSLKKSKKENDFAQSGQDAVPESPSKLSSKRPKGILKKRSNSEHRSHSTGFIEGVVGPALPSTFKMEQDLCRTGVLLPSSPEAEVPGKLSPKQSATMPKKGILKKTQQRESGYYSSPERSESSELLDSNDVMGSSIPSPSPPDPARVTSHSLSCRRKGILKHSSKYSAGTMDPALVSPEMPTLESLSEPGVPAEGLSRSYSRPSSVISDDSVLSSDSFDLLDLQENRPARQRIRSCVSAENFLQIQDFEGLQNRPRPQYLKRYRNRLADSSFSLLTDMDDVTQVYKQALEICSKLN

[14] = compound 10 uM, read-out: % Enzyme Activity (relative to DMSO controls)

T11 sequence (Q96RG2 whole entry): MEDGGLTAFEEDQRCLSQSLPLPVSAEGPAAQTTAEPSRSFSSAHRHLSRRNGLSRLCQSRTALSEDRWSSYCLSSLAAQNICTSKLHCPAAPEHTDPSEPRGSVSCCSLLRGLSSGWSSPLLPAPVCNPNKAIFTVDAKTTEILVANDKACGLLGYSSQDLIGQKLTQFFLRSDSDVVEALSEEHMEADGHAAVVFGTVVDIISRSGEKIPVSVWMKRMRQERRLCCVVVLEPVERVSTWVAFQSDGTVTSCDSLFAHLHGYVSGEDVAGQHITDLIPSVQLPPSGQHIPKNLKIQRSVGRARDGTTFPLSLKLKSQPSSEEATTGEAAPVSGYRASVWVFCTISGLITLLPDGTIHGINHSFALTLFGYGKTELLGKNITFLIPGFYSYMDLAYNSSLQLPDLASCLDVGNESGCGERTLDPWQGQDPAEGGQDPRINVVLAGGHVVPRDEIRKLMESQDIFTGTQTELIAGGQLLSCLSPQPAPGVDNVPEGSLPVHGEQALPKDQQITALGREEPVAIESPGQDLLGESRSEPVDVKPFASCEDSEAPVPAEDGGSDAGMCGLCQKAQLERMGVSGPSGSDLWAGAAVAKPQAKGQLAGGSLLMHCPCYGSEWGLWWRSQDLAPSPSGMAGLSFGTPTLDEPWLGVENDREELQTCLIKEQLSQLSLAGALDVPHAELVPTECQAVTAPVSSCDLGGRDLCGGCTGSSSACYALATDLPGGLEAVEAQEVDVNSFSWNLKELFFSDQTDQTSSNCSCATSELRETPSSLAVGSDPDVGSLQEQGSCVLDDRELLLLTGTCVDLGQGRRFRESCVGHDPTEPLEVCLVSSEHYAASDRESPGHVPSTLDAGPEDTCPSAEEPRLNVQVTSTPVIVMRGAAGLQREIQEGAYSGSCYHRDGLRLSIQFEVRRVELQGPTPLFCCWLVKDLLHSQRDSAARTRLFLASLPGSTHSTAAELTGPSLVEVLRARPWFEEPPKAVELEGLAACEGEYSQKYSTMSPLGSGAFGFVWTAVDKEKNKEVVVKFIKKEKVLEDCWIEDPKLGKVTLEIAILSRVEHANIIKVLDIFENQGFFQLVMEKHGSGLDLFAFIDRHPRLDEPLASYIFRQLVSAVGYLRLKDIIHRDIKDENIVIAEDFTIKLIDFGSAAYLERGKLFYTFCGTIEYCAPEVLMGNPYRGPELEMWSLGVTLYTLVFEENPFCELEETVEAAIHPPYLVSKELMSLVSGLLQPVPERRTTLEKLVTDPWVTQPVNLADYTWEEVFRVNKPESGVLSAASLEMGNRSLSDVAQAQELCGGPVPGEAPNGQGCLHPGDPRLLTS
T2 sequence (Q02763 23-1124 Y1108F): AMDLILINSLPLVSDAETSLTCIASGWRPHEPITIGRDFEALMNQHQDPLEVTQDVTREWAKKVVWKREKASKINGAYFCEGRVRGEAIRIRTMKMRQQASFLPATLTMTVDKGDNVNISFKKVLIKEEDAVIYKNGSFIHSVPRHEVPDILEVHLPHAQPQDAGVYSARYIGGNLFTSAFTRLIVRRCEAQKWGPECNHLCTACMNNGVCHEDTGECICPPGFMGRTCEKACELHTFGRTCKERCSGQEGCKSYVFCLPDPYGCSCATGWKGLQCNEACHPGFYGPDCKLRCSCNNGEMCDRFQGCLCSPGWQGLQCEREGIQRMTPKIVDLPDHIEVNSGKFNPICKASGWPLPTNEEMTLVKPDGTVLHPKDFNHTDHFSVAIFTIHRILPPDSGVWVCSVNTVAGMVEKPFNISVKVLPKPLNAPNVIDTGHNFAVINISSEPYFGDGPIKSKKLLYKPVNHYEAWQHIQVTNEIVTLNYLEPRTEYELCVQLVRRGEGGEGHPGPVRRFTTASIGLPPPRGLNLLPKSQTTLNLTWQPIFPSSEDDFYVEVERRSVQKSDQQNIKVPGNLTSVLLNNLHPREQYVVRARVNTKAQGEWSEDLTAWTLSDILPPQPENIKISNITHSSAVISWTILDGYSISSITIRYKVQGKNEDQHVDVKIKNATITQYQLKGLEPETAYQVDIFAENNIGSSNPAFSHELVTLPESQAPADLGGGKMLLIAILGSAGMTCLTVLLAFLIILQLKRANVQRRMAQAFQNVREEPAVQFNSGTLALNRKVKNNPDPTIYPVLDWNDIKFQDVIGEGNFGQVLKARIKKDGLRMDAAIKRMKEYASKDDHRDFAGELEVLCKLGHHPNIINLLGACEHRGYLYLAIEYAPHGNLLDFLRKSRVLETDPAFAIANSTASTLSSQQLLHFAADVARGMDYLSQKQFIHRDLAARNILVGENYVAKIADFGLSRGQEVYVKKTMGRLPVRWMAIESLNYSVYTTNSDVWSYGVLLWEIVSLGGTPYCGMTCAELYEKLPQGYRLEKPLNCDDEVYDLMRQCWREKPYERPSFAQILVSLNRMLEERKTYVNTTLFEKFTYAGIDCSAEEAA
T4 sequence (P50613 whole entry): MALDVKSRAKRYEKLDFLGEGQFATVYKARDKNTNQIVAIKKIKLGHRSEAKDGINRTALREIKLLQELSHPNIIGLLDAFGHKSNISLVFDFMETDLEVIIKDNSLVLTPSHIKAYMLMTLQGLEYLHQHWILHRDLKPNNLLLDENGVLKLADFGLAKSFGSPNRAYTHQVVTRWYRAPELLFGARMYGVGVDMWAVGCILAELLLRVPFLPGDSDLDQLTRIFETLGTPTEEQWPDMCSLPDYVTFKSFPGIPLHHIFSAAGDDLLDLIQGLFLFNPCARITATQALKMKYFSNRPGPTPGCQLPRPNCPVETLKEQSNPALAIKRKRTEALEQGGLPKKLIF
T12 sequence (Q15120 whole entry): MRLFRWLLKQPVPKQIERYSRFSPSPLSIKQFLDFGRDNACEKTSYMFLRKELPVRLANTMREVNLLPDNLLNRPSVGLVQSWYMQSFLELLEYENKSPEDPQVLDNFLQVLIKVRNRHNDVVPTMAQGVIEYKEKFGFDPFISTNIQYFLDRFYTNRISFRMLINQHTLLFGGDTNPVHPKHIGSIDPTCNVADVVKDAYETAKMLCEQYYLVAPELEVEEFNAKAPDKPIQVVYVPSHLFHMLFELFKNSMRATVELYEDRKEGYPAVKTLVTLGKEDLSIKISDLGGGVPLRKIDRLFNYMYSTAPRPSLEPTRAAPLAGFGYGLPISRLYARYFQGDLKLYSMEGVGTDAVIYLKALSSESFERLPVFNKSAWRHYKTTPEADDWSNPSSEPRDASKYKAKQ
T7 sequence (P49760 whole entry): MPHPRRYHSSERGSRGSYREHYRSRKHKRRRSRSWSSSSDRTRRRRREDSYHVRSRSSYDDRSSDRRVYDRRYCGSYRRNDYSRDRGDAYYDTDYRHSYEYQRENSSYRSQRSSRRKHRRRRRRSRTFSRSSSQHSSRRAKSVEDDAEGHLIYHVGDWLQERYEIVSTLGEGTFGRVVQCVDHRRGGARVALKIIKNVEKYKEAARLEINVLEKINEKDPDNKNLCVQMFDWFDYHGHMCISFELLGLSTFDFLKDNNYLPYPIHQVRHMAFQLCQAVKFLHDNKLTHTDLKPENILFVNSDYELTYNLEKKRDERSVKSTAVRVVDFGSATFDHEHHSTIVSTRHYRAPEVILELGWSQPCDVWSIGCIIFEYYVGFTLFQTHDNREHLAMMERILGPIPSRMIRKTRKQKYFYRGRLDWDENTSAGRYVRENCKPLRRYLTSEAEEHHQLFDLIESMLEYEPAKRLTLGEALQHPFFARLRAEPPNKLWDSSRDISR
T6 sequence (P10721 26-976 D820E): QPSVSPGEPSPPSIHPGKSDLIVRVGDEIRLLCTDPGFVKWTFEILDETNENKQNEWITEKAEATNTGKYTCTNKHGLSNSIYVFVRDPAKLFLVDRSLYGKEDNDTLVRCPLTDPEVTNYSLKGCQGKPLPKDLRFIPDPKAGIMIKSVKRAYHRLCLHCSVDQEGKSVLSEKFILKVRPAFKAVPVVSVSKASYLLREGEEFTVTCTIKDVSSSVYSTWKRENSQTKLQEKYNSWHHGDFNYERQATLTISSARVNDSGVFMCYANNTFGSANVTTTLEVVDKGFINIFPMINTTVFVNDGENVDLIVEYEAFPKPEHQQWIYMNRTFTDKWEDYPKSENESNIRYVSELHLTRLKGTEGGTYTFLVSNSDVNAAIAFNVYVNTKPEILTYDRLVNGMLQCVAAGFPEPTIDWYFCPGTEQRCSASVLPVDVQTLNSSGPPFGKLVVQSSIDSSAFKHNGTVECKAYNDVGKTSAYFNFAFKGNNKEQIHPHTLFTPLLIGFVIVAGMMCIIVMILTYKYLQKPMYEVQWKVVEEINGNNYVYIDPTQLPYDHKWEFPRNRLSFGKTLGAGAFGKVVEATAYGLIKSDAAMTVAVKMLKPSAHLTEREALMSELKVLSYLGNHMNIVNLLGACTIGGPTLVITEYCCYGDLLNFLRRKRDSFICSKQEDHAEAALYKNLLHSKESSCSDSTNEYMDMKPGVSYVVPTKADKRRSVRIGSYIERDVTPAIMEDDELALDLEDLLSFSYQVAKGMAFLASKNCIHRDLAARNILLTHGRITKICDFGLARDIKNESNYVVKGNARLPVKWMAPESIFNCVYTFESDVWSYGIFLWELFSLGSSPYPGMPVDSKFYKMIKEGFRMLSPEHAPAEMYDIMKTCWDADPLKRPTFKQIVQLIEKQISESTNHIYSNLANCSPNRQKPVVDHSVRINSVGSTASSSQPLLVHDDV

Row | Compound | remaining activity at 10 µM (382 unique human kinases [1]) [%] | remaining activity at 10 µM (382 unique human kinases [2]) [%] | remaining activity at 10 µM (382 unique human kinases [3]) [%] | remaining activity at 10 µM (382 unique human kinases [4]) [%] | remaining activity at 10 µM (382 unique human kinases [5]) [%] | remaining activity at 10 µM (382 unique human kinases [6]) [%] | remaining activity at 10 µM (382 unique human kinases [7]) [%] | remaining activity at 10 µM (382 unique human kinases [8]) [%] | remaining activity at 10 µM (382 unique human kinases [9]) [%] | remaining activity at 10 µM (382 unique human kinases [10]) [%] | remaining activity at 10 µM (382 unique human kinases [11]; [14]) [%] | remaining activity at 10 µM (382 unique human kinases [12]) [%] | remaining activity at 10 µM (382 unique human kinases [13]) [%] | also measured
1 | CC(C)c1cc(-c2n[nH]c(=O)n2-c2ccc3c(ccn3C)c2)c(O)cc1O [Ganetespib (STA9090)] | 73.7 | 90 | 82.2 | 95.8 | 92.2 | 72.5 | 67.1 | 66.7 | 83.3 | 72.8 |  |  |  | 
2 | CC(C)c1cc(-c2n[nH]c(=O)n2-c2ccc3c(ccn3C)c2)c(O)cc1O [Ganetespib] |  |  |  |  |  |  |  |  |  |  | 12.1 | 22.3 | 97.3 | remaining activity at 1 µM (382 unique human kinases [11]; compound 1 uM, read-out: % Enzyme Activity (relative to DMSO controls)): 49.7%
3 | CCNC(=O)c1noc(-c2cc(C(C)C)c(O)cc2O)c1-c1ccc(CN2CCOCC2)cc1 [Luminespib (AUY-922)] | 103 | 110 | 105 | 85.3 | 101 | 88.4 | 80.2 | 104 | 83.5 | 89.9 |  |  |  | % Enzyme Activity (relative to DMSO controls) (382 unique human kinases [1]): 101.81%; % Enzyme Activity (relative to DMSO controls) (382 unique human kinases [2]): 108.40%; % Enzyme Activity (relative to DMSO controls) (382 unique human kinases [3]): 99.56%; % Enzyme Activity (relative to DMSO controls) (382 unique human kinases [4]): 84.47%; % Enzyme Activity (relative to DMSO controls) (382 unique human kinases [5]): 98.95%; % Enzyme Activity (relative to DMSO controls) (382 unique human kinases [6]): 88.12%; % Enzyme Activity (relative to DMSO controls) (382 unique human kinases [7]): 80.06%; % Enzyme Activity (relative to DMSO controls) (382 unique human kinases [8]): 102.97%; % Enzyme Activity (relative to DMSO controls) (382 unique human kinases [9]): 82.81%; % Enzyme Activity (relative to DMSO controls) (382 unique human kinases [10]): 89.83%
4 | CCNC(=O)c1noc(-c2cc(C(C)C)c(O)cc2O)c1-c1ccc(CN2CCOCC2)cc1 [Luminespib] |  |  |  |  |  |  |  |  |  |  | 99 | 76.8 | 93.9 | % Enzyme Activity (relative to DMSO controls) (382 unique human kinases [11]; compound 10 uM): 98.65%; % Enzyme Activity (relative to DMSO controls) (382 unique human kinases [12]): 75.85%; % Enzyme Activity (relative to DMSO controls) (382 unique human kinases [13]): 92.57%
